From patent US9125913B2, “Bcl-2-selective apoptosis-inducing agents for the treatment of cancer and immune diseases” (AbbVie Inc., priority 2008, dated 2015)

The compounds below were run on GST-Bcl-2 (assay: TR-FRET binding assay, Bcl-2). Details: TR-FRET Ki values.
Outline: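 Ki values come from Wang's competitive-binding equation applied to TR-FRET signal (excitation 340/35 nm; emission 520/525 nm F-Bak peptide, 495/510 nm Tb antibody). Protein, probe and antibody incubated with compound 3 h at room temperature; dilution series began at 50 μM as 2× stock in 10% DMSO.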

SMILES | Binding selectivity ratio (Bcl-XL Ki/Bcl-2 Ki)
CC1(C)CCC(CN2CCN(c3ccc(C(=O)NS(=O)(=O)c4ccc(CCC5OCCO5)c([N+](=O)[O-])c4)c(Oc4ccc5[nH]ccc5c4)c3)CC2)=C(c2ccc(Cl)cc2)C1 [EXAMPLE 278, 4-(4-{[2-(4-chlorophenyl)-4,4-dimethylcyclohex-1-en-1-yl]methyl}piperazin-1-yl)-N-({4-[2-(1,3-dioxolan-2-yl)ethyl]-3-nitrophenyl}sulfonyl)-2-(1H-indol-5-yloxy)benzamide] | >929.4
CC1(C)CCC(CN2CCN(c3ccc(C(=O)NS(=O)(=O)c4ccc(OCC5CCOCC5)c([N+](=O)[O-])c4)c(Oc4ccc5[nH]ccc5c4)c3)CC2)=C(c2ccc(Cl)cc2)C1 [EXAMPLE 279, 4-(4-{[2-(4-chlorophenyl)-4,4-dimethylcyclohex-1-en-1-yl]methyl}piperazin-1-yl)-2-(1H-indol-5-yloxy)-N-{[3-nitro-4-(tetrahydro-2H-pyran-4-ylmethoxy)phenyl]sulfonyl}benzamide] | >6923.2
CC1(C)CCC(CN2CCN(c3ccc(C(=O)NS(=O)(=O)c4ccc(NCCN5CCNC(=O)C5)c([N+](=O)[O-])c4)c(Oc4cccc5[nH]ccc45)c3)CC2)=C(c2ccc(Cl)cc2)C1 [EXAMPLE 280, 4-(4-{[2-(4-chlorophenyl)-4,4-dimethylcyclohex-1-en-1-yl]methyl}piperazin-1-yl)-2-(1H-indol-4-yloxy)-N-[(3-nitro-4-{[2-(3-oxopiperazin-1-yl)ethyl]amino}phenyl)sulfonyl]benzamide] | 1097.2
CN1CC(Nc2ccc(S(=O)(=O)NC(=O)c3ccc(N4CCN(CC5=C(c6ccc(Cl)cc6)CC(C)(C)CC5)CC4)cc3Oc3ccc4[nH]ccc4c3)cc2[N+](=O)[O-])CC1=O (stereo not shown) [EXAMPLE 281, 4-(4-{[2-(4-chlorophenyl)-4,4-dimethylcyclohex-1-en-1-yl]methyl}piperazin-1-yl)-2-(1H-indol-5-yloxy)-N-({4-[(1-methyl-5-oxopyrrolidin-3-yl)amino]-3-nitrophenyl}sulfonyl)benzamide] | 1558.9
CN1CC(Nc2ccc(S(=O)(=O)NC(=O)c3ccc(N4CCN(CC5=C(c6ccc(Cl)cc6)CC(C)(C)CC5)CC4)cc3Oc3ccc4[nH]ccc4c3)cc2[N+](=O)[O-])CCC1=O (stereo not shown) [EXAMPLE 282, 4-(4-{[2-(4-chlorophenyl)-4,4-dimethylcyclohex-1-en-1-yl]methyl}piperazin-1-yl)-2-(1H-indol-5-yloxy)-N-({4-[(1-methyl-6-oxopiperidin-3-yl)amino]-3-nitrophenyl}sulfonyl)benzamide] | 3434.4
CC1(C)CCC(CN2CCN(c3ccc(C(=O)NS(=O)(=O)c4ccc(NN5CCCCC5)c([N+](=O)[O-])c4)c(Oc4cccc5[nH]ccc45)c3)CC2)=C(c2ccc(Cl)cc2)C1 [EXAMPLE 283, 4-(4-{[2-(4-chlorophenyl)-4,4-dimethylcyclohex-1-en-1-yl]methyl}piperazin-1-yl)-2-(1H-indol-4-yloxy)-N-{[3-nitro-4-(piperidin-1-ylamino)phenyl]sulfonyl}benzamide] | >13.9
CC1(C)CCC(CN2CCN(c3ccc(C(=O)NS(=O)(=O)c4ccc(NN5CCCCC5)c([N+](=O)[O-])c4)c(Oc4ccc5[nH]ccc5c4)c3)CC2)=C(c2ccc(Cl)cc2)C1 [EXAMPLE 284, 4-(4-{[2-(4-chlorophenyl)-4,4-dimethylcyclohex-1-en-1-yl]methyl}piperazin-1-yl)-2-(1H-indol-5-yloxy)-N-{[3-nitro-4-(piperidin-1-ylamino)phenyl]sulfonyl}benzamide] | >425.2
Cn1ncc(-c2ccc(Cl)cc2)c1CN1CCN(c2ccc(C(=O)NS(=O)(=O)c3ccc(NCC4CCOCC4)c([N+](=O)[O-])c3)c(Oc3ccc4[nH]ccc4c3)c2)CC1 [EXAMPLE 285, 4-(4-{[4-(4-chlorophenyl)-1-methyl-1H-pyrazol-5-yl]methyl}piperazin-1-yl)-2-(1H-indol-5-yloxy)-N-({3-nitro-4-[(tetrahydro-2H-pyran-4-ylmethyl)amino]phenyl}sulfonyl)benzamide] | >94.4
CC1(C)CCC(CN2CCN(c3ccc(C(=O)NS(=O)(=O)c4ccc(OCC5(C)COC5)c([N+](=O)[O-])c4)c(Oc4ccc5[nH]ccc5c4)c3)CC2)=C(c2ccc(Cl)cc2)C1 [EXAMPLE 286, 4-(4-{[2-(4-chlorophenyl)-4,4-dimethylcyclohex-1-en-1-yl]methyl}piperazin-1-yl)-2-(1H-indol-5-yloxy)-N-({4-[(3-methyloxetan-3-yl)methoxy]-3-nitrophenyl}sulfonyl)benzamide] | >1165.0
CC1(C)CCC(CN2CCN(c3ccc(C(=O)NS(=O)(=O)c4ccc(NCc5cncs5)c([N+](=O)[O-])c4)c(Oc4ccc5[nH]ccc5c4)c3)CC2)=C(c2ccc(Cl)cc2)C1 [EXAMPLE 288, 4-(4-{[2-(4-chlorophenyl)-4,4-dimethylcyclohex-1-en-1-yl]methyl}piperazin-1-yl)-2-(1H-indol-5-yloxy)-N-({3-nitro-4-[(1,3-thiazol-5-ylmethyl)amino]phenyl}sulfonyl)benzamide] | >3730.9
CC1(C)CCC(CN2CCN(c3ccc(C(=O)NS(=O)(=O)c4ccc(OCC5CCOCC5)c([N+](=O)[O-])c4)c(Oc4cccc5[nH]ccc45)c3)CC2)=C(c2ccc(Cl)cc2)C1 [EXAMPLE 289, 4-(4-{[2-(4-chlorophenyl)-4,4-dimethylcyclohex-1-en-1-yl]methyl}piperazin-1-yl)-2-(1H-indol-4-yloxy)-N-{[3-nitro-4-(tetrahydro-2H-pyran-4-ylmethoxy)phenyl]sulfonyl}benzamide] | >5917.7
CC1(C)CCC(c2ccc(Cl)cc2)=C(CN2CCN(c3ccc(C(=O)NS(=O)(=O)c4ccc(NCC5CCOCC5)c([N+](=O)[O-])c4)c(Oc4ccc5[nH]ccc5c4)c3)CC2)C1 [EXAMPLE 290, 4-(4-{[2-(4-chlorophenyl)-5,5-dimethylcyclohex-1-en-1-yl]methyl}piperazin-1-yl)-2-(1H-indol-5-yloxy)-N-({3-nitro-4-[(tetrahydro-2H-pyran-4-ylmethyl)amino]phenyl}sulfonyl)benzamide] | >1808.5
CC1(C)CCC(CN2CCN(c3ccc(C(=O)NS(=O)(=O)c4ccc(NCCC5CCOCC5)c([N+](=O)[O-])c4)c(Oc4ccc5[nH]ccc5c4)c3)CC2)=C(c2ccc(Cl)cc2)C1 [EXAMPLE 291, 4-(4-{[2-(4-chlorophenyl)-4,4-dimethylcyclohex-1-en-1-yl]methyl}piperazin-1-yl)-2-(1H-indol-5-yloxy)-N-({3-nitro-4-[(2-tetrahydro-2H-pyran-4-ylethyl)amino]phenyl}sulfonyl)benzamide] | >1179.1
CC1(C)CCC(CN2CCN(c3ccc(C(=O)NS(=O)(=O)c4ccc(NCCOC(F)(F)F)c([N+](=O)[O-])c4)c(Oc4cccc5[nH]ccc45)c3)CC2)=C(c2ccc(Cl)cc2)C1 [EXAMPLE 292, 4-(4-{[2-(4-chlorophenyl)-4,4-dimethylcyclohex-1-en-1-yl]methyl}piperazin-1-yl)-2-(1H-indol-4-yloxy)-N-[(3-nitro-4-{[2-(trifluoromethoxy)ethyl]amino}phenyl)sulfonyl]benzamide] | >1104.2
COCCOCCNc1ccc(S(=O)(=O)NC(=O)c2ccc(N3CCN(CC4=C(c5ccc(Cl)cc5)CC(C)(C)CC4)CC3)cc2Oc2cccc3[nH]ccc23)cc1[N+](=O)[O-] [EXAMPLE 293, 4-(4-{[2-(4-chlorophenyl)-4,4-dimethylcyclohex-1-en-1-yl]methyl}piperazin-1-yl)-2-(1H-indol-4-yloxy)-N-[(4-{[2-(2-methoxyethoxy)ethyl]amino}-3-nitrophenyl)sulfonyl]benzamide] | 505.1
CC1(C)CCC(CN2CCN(c3ccc(C(=O)NS(=O)(=O)c4ccc(NCCCS(C)(=O)=O)c([N+](=O)[O-])c4)c(Oc4cccc5[nH]ccc45)c3)CC2)=C(c2ccc(Cl)cc2)C1 [EXAMPLE 294, 4-(4-{[2-(4-chlorophenyl)-4,4-dimethylcyclohex-1-en-1-yl]methyl}piperazin-1-yl)-2-(1H-indol-4-yloxy)-N-[(4-{[3-(methylsulfonyl)propyl]amino}-3-nitrophenyl)sulfonyl]benzamide] | 252
CC1(C)CCC(CN2CCN(c3ccc(C(=O)NS(=O)(=O)c4ccc(NCCCN5CCS(=O)(=O)CC5)c([N+](=O)[O-])c4)c(Oc4cccc5[nH]ccc45)c3)CC2)=C(c2ccc(Cl)cc2)C1 [EXAMPLE 295, 4-(4-{[2-(4-chlorophenyl)-4,4-dimethylcyclohex-1-en-1-yl]methyl}piperazin-1-yl)-N-[(4-{[3-(1,1-dioxidothiomorpholin-4-yl)propyl]amino}-3-nitrophenyl)sulfonyl]-2-(1H-indol-4-yloxy)benzamide] | 599.4
CC1(C)CCC(CN2CCN(c3ccc(C(=O)NS(=O)(=O)c4ccc(CCC5CCOCC5)c([N+](=O)[O-])c4)c(Oc4ccc5[nH]ccc5c4)c3)CC2)=C(c2ccc(Cl)cc2)C1 [EXAMPLE 296, 4-(4-{[2-(4-chlorophenyl)-4,4-dimethylcyclohex-1-en-1-yl]methyl}piperazin-1-yl)-2-(1H-indol-5-yloxy)-N-{[3-nitro-4-(2-tetrahydro-2H-pyran-4-ylethyl)phenyl]sulfonyl}benzamide] | >1014.4
CC1(C)CCC(CN2CCN(c3ccc(C(=O)NS(=O)(=O)c4ccc(OCC5COCCO5)c([N+](=O)[O-])c4)c(Oc4ccc5[nH]ccc5c4)c3)CC2)=C(c2ccc(Cl)cc2)C1 (stereo not shown) [EXAMPLE 297, 4-(4-{[2-(4-chlorophenyl)-4,4-dimethylcyclohex-1-en-1-yl]methyl}piperazin-1-yl)-N-{[4-(1,4-dioxan-2-ylmethoxy)-3-nitrophenyl]sulfonyl}-2-(1H-indol-5-yloxy)benzamide] | 2209.5
